What was measured:
[1] = tested on: Arabidopsis T1 plants transformed with 24DT21 nucleotide sequence; assay: Herbicide resistance effect test of transgenic Arabidopsis T1 plants (spraying); type: in vivo, Arabidopsis thaliana; settings: genotype 24DT21, 560 g ae/ha (1x)
From the text: (§1) 24DT21 gene was used to transform Arabidopsis for the first time. At first, T1 transformants were selected from the background of un-transformed seeds, using glufosinate-ammonium selection scheme. About 20000 T1 seeds are screened among which 139 strains of T1 generation positive transformants (PAT gene) were identified, i.e. the transformation efficiency was about 0.7%. Herbicide resistance effect tests to 2,4-D dimethyl ammonium salt and agroxone of Arabidopsis T1 plants transformed with 24DT21 nucleotide sequence, control nucleotide sequence respectively and wild-type Arabidopsis plants were performed after 18 days of planting.
(§2) Arabidopsis T1 plants transformed with 24DT21 nucleotide sequence, control nucleotide sequence respectively and wild-type Arabidopsis plants were sprayed with 2,4-D dimethyl ammonium salt (560 g ae/ha, 1-fold concentration in field), agroxone (560 g ae/ha, 1-fold concentration in field) and blank solvent (water). Resistance conditions of the plants were counted 7 days and 14 days after spraying. Plants with growth conditions consistent with blank solvent (water) 7 days after spaying were classified as highly resistant plants; Plants with curly rosette leaves 7 days after spaying were classified as moderately resistant plants; Plants incapable of bolting 14 days after spaying were classified as low-resistant plants and the dead plants 14 days after spaying were classified as non-resistant plants. Because each Arabidopsis T1 plant is an independent transformation event, significant differences of individual T1 responses can be expected under a given dose.

[2] = tested on: Arabidopsis T1 plants transformed with control nucleotide sequence; assay: Herbicide resistance effect test of Arabidopsis T1 plants, control sequence (spraying); type: in vivo, Arabidopsis thaliana; settings: genotype Control, 560 g ae/ha (1x)
From the text: as §1, §2

[3] = tested on: wild-type Arabidopsis plants; assay: Herbicide resistance effect test of wild-type Arabidopsis (spraying); type: in vivo, Arabidopsis thaliana; settings: genotype Wild, 560 g ae/ha (1x)
From the text: as §1, §2

[4] = tested on: Soybean plants containing 24DT21 nucleotide sequence (S1, S2, S3); assay: Herbicide-resistance effect of transgenic soybean T1 plants (spraying, damage degree); type: in vivo; settings: 2240 g ae/ha (4x); for Average damage % 6 HAT: 6 hours after spraying; for Average damage % 2 DAT: 2 days after spraying; for Average damage % 7 DAT: 7 days after spraying; for Average damage % 14 DAT: 14 days after spraying
Description: (§3) Herbicide resistance effects tests to 2,4-D dimethyl ammonium salt and agroxone of soybean plants containing 24DT21 nucleotide sequence and control nucleotide sequence respectively and wild type soybean plants (stages V3-V4) were performed respectively.
(§4) Soybean plants containing 24DT21 nucleotide sequence, control nucleotide sequence and wild type soybean plants were taken and spayed with 2,4-D dimethyl ammonium salt (2240 g ae/ha, four-folds concentration in field), agroxone (2240 g ae/ha, four-folds concentration in field) and blank solvent (water). Take statistics of the damage degree of each plant caused by herbicides according to the curling degree of leaves and the damage degree of growing point six hours ([…]), two days (2DAT), seven days (7DAT) and 14 days (14DAT) after spraying respectively: if leaves are flat like wild-type leaves and the growing point is intact, the damage degree is 0%; if leaves curl up and wilt and the growing point is died, the damage degree is 100%. There are three strains contained a transferred 24DT21 nucleotide sequence (S1, S2 and S3), two strains contained a transferred control sequence (S4 and S5) and one wild-type strain (CK1) in total; select 10˜15 plants from each strain for testing.

[5] = tested on: Soybean plants containing control nucleotide sequence (S4, S5); assay: Herbicide-resistance effect of soybean plants, control sequence (spraying, damage degree); type: in vivo; settings: 2240 g ae/ha (4x); for Average damage % 6 HAT: 6 hours after spraying; for Average damage % 2 DAT: 2 days after spraying; for Average damage % 7 DAT: 7 days after spraying; for Average damage % 14 DAT: 14 days after spraying
Description: as §3, §4

[6] = tested on: wild type soybean plants (CK1); assay: Herbicide-resistance effect of wild type soybean (spraying, damage degree); type: in vivo; settings: wild-type soybean strain CK1, 2240 g ae/ha (4x)
Description: as §3, §4

[7] = tested on: Corn plants containing 24DT21 nucleotide sequence (S6, S7, S8); assay: Herbicide-resistance effect test of transgenic corn T1 plants (spraying, prop root development); type: in vivo; settings: 8960 g ae/ha (16x), 21 days after spraying; for Abnormal development of brace roots / Normal development of brace roots: number of plants
Description: (§5) Herbicide resistance effects tests to 2,4-D dimethyl ammonium salt and agroxone of corn plants containing 24DT21 nucleotide sequence, control nucleotide sequence respectively and wild type corn plants (stages V3-V4) were performed respectively.
(§6) Corn plants containing 24DT21 nucleotide sequence, control nucleotide sequence respectively and wild type corn plants were taken and spayed with 2,4-D dimethyl ammonium salt (8960 g ae/ha, 16-folds concentration in field), agroxone (8960 g ae/ha, 16-folds concentration in field) and blank solvent (water) respectively. Prop root development was counted 21 days after spaying. Three strains (S6, S7 and S8) of corn plants transformed with 24DT21 nucleotide sequence, two strains (S9 and S10) of corn plants transformed with control nucleotide sequence and 1 strain of wild type (CK2) corn were selected and 10-15 plants from each stain were tested.

[8] = tested on: Corn plants containing control nucleotide sequence (S9, S10); assay: Herbicide-resistance effect test of corn plants, control sequence (spraying, prop root development); type: in vivo; settings: 8960 g ae/ha (16x), 21 days after spraying; for Abnormal development of brace roots / Normal development of brace roots: number of plants
Description: as §5, §6

[9] = tested on: wild type corn plants (CK2); assay: Herbicide-resistance effect test of wild type corn (spraying, prop root development); type: in vivo; settings: wild type corn strain CK2, 8960 g ae/ha (16x), 21 days after spraying
Description: as §5, §6

[10] = number of plants of 32 dead 14 days after spraying
[11] = number of plants of 32 incapable of bolting 14 days after spraying
[12] = number of plants of 32 with curly rosette leaves 7 days after spraying
[13] = number of plants of 32 with growth consistent with blank solvent 7 days after spraying
[14] = soybean strain S4 (control sequence)
[15] = soybean strain S5 (control sequence)
[16] = corn strain S9 (control sequence)
[17] = corn strain S10 (control sequence)

CNC.O=C(O)COc1ccc(Cl)cc1Cl [2,4-D dimethyl ammonium salt]
Non-resistant [1, 10]: 4
Low resistant [1, 11]: 1
Moderate resistant [1, 12]: 3
High resistant [1, 13]: 24
Non-resistant [2, 10]: 32
Low resistant [2, 11]: 0
Moderate resistant [2, 12]: 0
High resistant [2, 13]: 0
Non-resistant [3, 10]: 32
Low resistant [3, 11]: 0
Moderate resistant [3, 12]: 0
High resistant [3, 13]: 0
Average damage % 6 HAT ([4]; soybean strain S1 (24DT21)): 6%
Average damage % 2 DAT ([4]; soybean strain S1 (24DT21)): 4%
Average damage % 7 DAT ([4]; soybean strain S1 (24DT21)): 0%
Average damage % 14 DAT ([4]; soybean strain S1 (24DT21)): 0%
Average damage % 6 HAT ([4]; soybean strain S2 (24DT21)): 11%
Average damage % 2 DAT ([4]; soybean strain S2 (24DT21)): 4%
Average damage % 7 DAT ([4]; soybean strain S2 (24DT21)): 0%
Average damage % 14 DAT ([4]; soybean strain S2 (24DT21)): 0%
Average damage % 6 HAT ([4]; soybean strain S3 (24DT21)): 3%
Average damage % 2 DAT ([4]; soybean strain S3 (24DT21)): 0%
Average damage % 7 DAT ([4]; soybean strain S3 (24DT21)): 0%
Average damage % 14 DAT ([4]; soybean strain S3 (24DT21)): 0%
Average damage % 6 HAT [5, 14]: 46%
Average damage % 2 DAT [5, 14]: 76%
Average damage % 7 DAT [5, 14]: 96%
Average damage % 14 DAT [5, 14]: 100%
Average damage % 6 HAT [5, 15]: 53%
Average damage % 2 DAT [5, 15]: 77%
Average damage % 7 DAT [5, 15]: 91%
Average damage % 14 DAT [5, 15]: 100%
Average damage % 6 HAT ([6]; 6 hours after spraying): 48%
Average damage % 2 DAT ([6]; 2 days after spraying): 72%
Average damage % 7 DAT ([6]; 7 days after spraying): 94%
Average damage % 14 DAT ([6]; 14 days after spraying): 100%
Proportion of normal development of brace roots ([7]; corn strain S6 (24DT21)): 100.00%
Abnormal development of brace roots ([7]; corn strain S6 (24DT21)): 0
Normal development of brace roots ([7]; corn strain S6 (24DT21)): 12
Proportion of normal development of brace roots ([7]; corn strain S7 (24DT21)): 100.00%
Abnormal development of brace roots ([7]; corn strain S7 (24DT21)): 0
Normal development of brace roots ([7]; corn strain S7 (24DT21)): 13
Proportion of normal development of brace roots ([7]; corn strain S8 (24DT21)): 100.00%
Abnormal development of brace roots ([7]; corn strain S8 (24DT21)): 0
Normal development of brace roots ([7]; corn strain S8 (24DT21)): 11
Proportion of normal development of brace roots [8, 16]: 0%
Abnormal development of brace roots [8, 16]: 12
Normal development of brace roots [8, 16]: 0
Proportion of normal development of brace roots [8, 17]: 0%
Abnormal development of brace roots [8, 17]: 11
Normal development of brace roots [8, 17]: 0
Proportion of normal development of brace roots [9]: 0%
Abnormal development of brace roots ([9]; number of plants): 15
Normal development of brace roots ([9]; number of plants): 0
